For test [1], the target named is T1, human CRTh2 (Homo sapiens, UniProt Q9Y5Y4).
T1 sequence (Q9Y5Y4 1-395): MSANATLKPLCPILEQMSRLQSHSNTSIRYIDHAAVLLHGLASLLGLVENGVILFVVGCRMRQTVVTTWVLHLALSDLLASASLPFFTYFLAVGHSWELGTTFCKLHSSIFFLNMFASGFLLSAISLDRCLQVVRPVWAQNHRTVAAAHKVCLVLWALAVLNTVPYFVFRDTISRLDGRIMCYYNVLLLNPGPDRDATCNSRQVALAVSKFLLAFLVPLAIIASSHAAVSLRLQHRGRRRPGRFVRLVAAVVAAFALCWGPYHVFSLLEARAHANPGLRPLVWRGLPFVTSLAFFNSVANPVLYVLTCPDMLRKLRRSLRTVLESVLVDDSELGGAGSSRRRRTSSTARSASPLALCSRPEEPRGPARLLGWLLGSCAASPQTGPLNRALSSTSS
Nature of the test: CRTH2 cAMP functional assay in CHO.K1-CRTh2 cells. Also on record: expressed in transfected cells; host or cells: CHO.K1-CRTh2 cells. The note with it: inhibition of PGD2-mediated attenuation of forskolin-induced cAMP accumulation. The format is cell-based. Here is the method:
This assay is conducted in CHO.K1-CRTh2 cells. cAMP is generated in the cell by stimulating cells with 5 μM forskolin, an adenylate cyclase activator. PGD2 is added to activate the CRTh2 receptor which results in the attenuation of the forskolin-induced cAMP accumulation. Potential CRTh2 antagonists are tested for their ability to inhibit the PGD2-mediated attenuation of the forskolin-induced cAMP accumulation in CHO.K1-CRTh2 cells.
For each concentration value on the dose-response curve, test compounds are prepared in assay stimulation buffer (HBSS, 5 mM HEPES, 10 μM IBMX±0.1% human serum albumin) containing DMSO (3% vol/vol) and 5 μL/well is added to an assay plate (384 well white optiplate).
CHO.K1-CRTh2 cultured in tissue culture flasks are washed with PBS and harvested with dissociation buffer. Cells are washed with PBS and resuspended in stimulation buffer to a concentration of 0.4×10^6/mL and added to the assay plate (10 μL/well).
The assay plate is incubated at room temperature on a shaker for 15 minutes.
A mix of agonist (10 nM Prostaglandin D2) and 5 μM forskolin is prepared in assay stimulation buffer and added to the assay plate (5 μL/well).
In addition, a cAMP standard is serially diluted in assay stimulation buffer and added to separate empty wells on the assay plate (20 μL/well). The cAMP standard allows for the quantification of cAMP generated in CHO.K1-CRTH2 cells.
The assay plate is incubated at room temperature on a shaker for 60 minutes.
Cell lysis buffer (Lysis buffer: Milli-Q H20, 5 mM HEPES, 0.3% Tween-20, 0.1% human serum albumin) is added to a bead mix (containing Alphascreen™ anti-cAMP acceptor beads 0.06 units/IL, Alphascreen™ streptavidin-coated donor beads 0.06 units/μL, biotinylated cAMP 0.06 units/μL, 10 μM IBMX) is prepared under darkened conditions 60 minutes prior to addition to the assay plate. The resulting lysis mix is added to all wells of the assay plate (40 μL/well).
The assay plate is sealed with Topseal-S™ and incubated in the dark at room temperature on a shaker for 45 minutes. The plate is then counted using a Packard Fusion™ instrument.
The resulting counts per minute are converted to nM cAMP by using the prepared cAMP standard curve. IC50 values (concentration of CRTh2 antagonist required to inhibit 50% of the PGD2-mediated attenuation of forskolin-induced cAMP accumulation in CHO.K1-CRTh2 cells) are then determined using Prism™ software.

Test [2] has as its target T1, human CRTh2. Kind of test: CRTh2 [3H]-PGD2 binding assay (filtration binding protocol; called SPA binding assay). Also on record: expressed in transfected cells; host or cells: CHO.K1 (Chinese Hamster Ovary) cells, membrane preparation. The following applies: competition with [3H]-PGD2 2.5 nM, CHO.K1-CRTh2 membranes. Here is the method: The binding of CRTh2 modulators is determined using membranes prepared from human CRTh2-expressing Chinese Hamster Ovary cells (CHO.K1-CRTh2). To produce cell membranes CHO.K1-CRTh2 cells cultured in roller bottles are harvested using cell dissociation buffer (Invitrogen). The cells are pelleted by centrifugation (167 g, 5 min). The cell pellet is incubated in hypotonic buffer (15 mM Tris-OH, 2 mM MgCl2, 0.3 mM EDTA, 1 mM EGTA, 1× Complete™ tablet) at 4° C. for 30 min. At 4° C. cells are homogenized using a Polytron® (IKA Ultra Turrax T25) for 5 bursts of 1 second. The homogenate is centrifuged (Beckman Optima™ TL Ultracentrifuge, 48000 g, 30 min at 4° C.). The supernatant is discarded and the membrane pellet resuspended in homogenisation buffer (75 mM Tris-OH, 12.5 mM MgCl2, 0.3 mM EDTA, 1 mM EGTA, 250 mM Sucrose, 1× Complete™ tablet. Membrane preparations are aliquoted and stored at […]. The protein content is estimated using Bradford Protein Assay Dye (Bio Rad).
The binding of [^3H]-PGD2 (157 Ci/mmol) to CHO.K1-CRTh2 membranes is determined in the absence (total binding) and presence (non-specific binding) of unlabelled PGD2 (1 μM). Subtraction of the cpm (counts per minute) of [^3H]-PGD2 binding in presence of excess unlabelled PGD2 from that observed in the absence of excess unlabelled PGD2 is defined as specific binding. Active CRTh2 modulators are able to compete with [^3H]-PGD2 for binding to the CRTh2 receptor and are identified in a decrease in the number of cpm bound.
The assay is performed in Greiner U-bottomed 96 well-plates, in a final volume of 100 μl per well. CHO.K1-CRTh2 membranes were diluted in assay buffer (10 mM HEPES-KOH (pH 7.4), 1 mM EDTA and 10 mM MnCl2) and 10 μg are added to each well. [^3H]-PGD2 is diluted in assay buffer and added to each well at a final concentration of 2.5 nM. To determine non-specific binding, [^3H]-PGD2 binding to the CRTh2 receptor is competed with using unlabelled PGD2 at a final well concentration of 1 μM. The experiment is done in triplicate, with reagents added to the wells as follows: • 25 μL assay buffer for total binding or • 25 μL PGD2 to determine non-specific binding • 25 μL [^3H]PGD2 • 50 μL membranes • 25 μL test compound in DMSO/assay buffer
The plates are incubated at room temperature on a shaker for 1 hour, and then harvested (Tomtec Harvester 9600) onto GF/C filter plates using wash buffer (10 mM HEPES-KOH, pH 7.4). […] Plates are then counted using a Packard Top Count instrument, Plates are then read on the Packard Topcount with the 3H Scintillation program (1 min per well). • Ki (dissocation constant for the inhibition) values for the CRTh2 modulators are reported. Ki values are determined using Sigma Plot™ software, using the Cheng-Prussoff equation. […]

On to `Cc1c(CC(=O)O)c2cccnc2n1Cc1ccc(S(=O)(=O)N2CCOCC2)cc1` [Example 1, {2-methyl-1-[4-(morpholine-4-sulfonyl)-benzyl]-1H-pyrrolo[2,3-b]pyridine-3-yl}acetic acid], for which, in test [1], the midpoint of inhibition, the IC50, lay at 60 nM. Also, the Ki in test [2] is 30 nM.
For `Cc1c(CC(=O)O)c2cccnc2n1Cc1ccc(S(=O)(=O)N2CCCC2)cc1` [Example 2] the same measures were 83 nM and 34 nM.
The corresponding values for `Cc1c(CC(=O)O)c2cccnc2n1Cc1ccc(S(=O)(=O)N2CCCCC2)cc1` [Example 4] are 42 nM and 240 nM.
`Cc1c(CC(=O)O)c2cccnc2n1Cc1ccc(S(=O)(=O)N(C)C2CCCCC2)cc1` [Example 6, {1-[4-(Cyclohexyl-methyl-sulfamoyl)-benzyl]-2-methyl-1H-pyrrolo[2,3-b]pyridin-3-yl}-acetic acid]: it took 18 nM to reach half-maximal inhibition in test [1] (IC50). Moreover, in test [2], the Ki amounted to 2 nM.

For the origin of these results see patent publication US8431703B2, “Pyrrolopyridine compounds and their use in treating disease” (Novartis AG, priority 2005, dated 2013).
